Test results as given in ChEMBL document CHEMBL5352465, “Small molecules containing chalcogen elements (S, Se, Te) as new warhead to fight neglected tropical diseases” (Eur J Med Chem, 2023).

Assays:
Trypanosoma cruzi [1] = assay: Antitrypanosomal activity against Trypanosoma cruzi arequipa strain trypomastigotes assessed as parasite growth inhibition incubated for 48 hrs by resazurin staining based analysis; assay type: functional, organism-based
Trypanosoma cruzi [2] = assay: Antitrypanosomal activity against Trypanosoma cruzi arequipa strain amastigotes assessed as parasite growth inhibition incubated for 48 hrs by resazurin staining based analysis; assay type: functional, organism-based
[3] = Selectivity index, ratio of CC50 for mouse J774.A1 cells to ratio of IC50 for antitrypanosomal activity against bloodstream Trypanosoma cruzi INC-5 strain trypomastigotes; assay type: toxicity; settings: read-out: Ratio CC50/IC50
Trypanosoma cruzi [4] = assay: Antitrypanosomal activity against bloodstream Trypanosoma cruzi NINOA strain trypomastigotes assessed as parasite growth inhibition incubated for 24 hrs by microscopic analysis; assay type: functional
Trypanosoma cruzi [5] = assay: Antitrypanosomal activity against bloodstream Trypanosoma cruzi INC-5 strain trypomastigotes assessed as parasite growth inhibition incubated for 24 hrs by microscopic analysis; assay type: functional
Trypanosoma cruzi [6] = assay: Antitrypanosomal activity against Trypanosoma cruzi amastigote assessed as parasite growth inhibition; assay type: functional, organism-based
Trypanosoma cruzi [7] = assay: Antitrypanosomal activity against Trypanosoma cruzi epimastigote Dm28c strain assessed as parasite growth inhibition; assay type: functional, organism-based
[8] = Selectivity index, ratio of CC50 for cytotoxicity against mouse RAW264.7 cells to IC50 for antitrypanosomal activity against Trypanosoma cruzi epimastigote; assay type: toxicity, cell-based; settings: read-out: Ratio CC50/IC50
[9] = Selectivity index, ratio of CC50 for cytotoxicity against mouse RAW264.7 cells to IC50 for antitrypanosomal activity against Trypanosoma cruzi amastigote; assay type: toxicity, cell-based; settings: read-out: Ratio CC50/IC50
Trypanosoma cruzi [10] = assay: Antitrypanosomal activity against Trypanosoma cruzi arequipa strain epimastigotes assessed as parasite growth inhibition incubated for 48 hrs by resazurin staining based analysis; assay type: functional, organism-based
[11] = Selectivity index, ratio of CC50 for human WI26VA4 cells to ratio of IC50 for antileishmanial activity against Leishmania braziliensis MHOM/BR/75/M2903 promastigote; assay type: toxicity; settings: read-out: Ratio CC50/IC50
Leishmania infantum [12] = assay: Antileishmanial activity against Leishmania infantum MHOM/BR/74/PP75 strain promastigotes assessed as reduction in cell viability incubated for 48 hrs by MTT assay; assay type: functional, organism-based; settings: MHOM/BR/74/PP75, 48 h
[13] = Selectivity index, ratio of CC50 for human WI26VA4 cells to ratio of IC50 for antileishmanial activity against Leishmania infantum MHOM/BR/74/PP75 promastigote; assay type: toxicity; settings: read-out: Ratio CC50/IC50
Leishmania braziliensis = assay: Antileishmanial activity against Leishmania braziliensis MHOM/BR/75/M2903 strain promastigotes assessed as reduction in cell viability incubated for 48 hrs by MTT assay; assay type: functional, organism-based; settings: MHOM/BR/75/M2903, 48 h
Leishmania infantum [14] = assay: Antileishmanial activity against Leishmania infantum amastigotes assessed as inhibition of parasite growth; assay type: functional, organism-based
Trypanosoma cruzi [15] = assay: Antitrypanosomal activity against bloodstream Trypanosoma cruzi Y strain trypomastigotes assessed as parasite growth inhibition incubated for 24 hrs by light microscopic analysis; assay type: functional, organism-based
Trypanosoma cruzi [16] = assay: Antitrypanosomal activity against Trypanosoma cruzi epimastigote assessed as parasite growth inhibition; assay type: functional, organism-based
Leishmania major = assay: Antileishmanial activity against Leishmania major promastigote assessed as inhibition of parasite growth; assay type: functional, organism-based
Leishmania infantum [17] = assay: Antileishmanial activity against Leishmania infantum promastigotes assessed as reduction in cell viability; assay type: functional, organism-based
[18] = Selectivity index, ratio of CC50 for mouse J774.A1 cells to ratio of IC50 for antitrypanosomal activity against bloodstream Trypanosoma cruzi NINOA strain trypomastigotes; assay type: toxicity; settings: read-out: Ratio CC50/IC50

Work on O=C(Nc1ccc([Se][Se]c2ccc(NC(=O)c3ccc(C(F)(F)F)cc3)cc2)cc1)c1ccc(C(F)(F)F)cc1 yielded an IC50 (Trypanosoma cruzi [1]) of 2.4 µM and an IC50 (Trypanosoma cruzi [2]) of 5.4 µM.
With Clc1ccc(CSc2nc3ccccc3s2)cc1 the selectivity ratio [3] was > 3.42, the LC50 (Trypanosoma cruzi [4]) was > 350 µM and the LC50 (Trypanosoma cruzi [5]) was 263 µM.
Work on NS(=O)(=O)c1ccc(NC(=O)Cc2ccccc2Br)c(F)c1 yielded an IC50 (Trypanosoma cruzi [6]) of 2.27 µM, an IC50 (Trypanosoma cruzi [7]) of 5.66 µM and a selectivity ratio [8] of 1. The selectivity ratio [9] was 3.
With O=S(=O)(Nc1ccc([Se][Se]c2ccc(NS(=O)(=O)c3ccc(C(F)(F)F)cc3)cc2)cc1)c1ccc(C(F)(F)F)cc1 the IC50 (Trypanosoma cruzi [10]) was 2.7 µM, the IC50 (Trypanosoma cruzi [1]) was 2 µM and the IC50 (Trypanosoma cruzi [2]) was 2.3 µM.
Work on O=C1NC(=O)/C(=C/c2cc(Cl)cc(Cl)c2Cl)S1 yielded a selectivity ratio [11] of 0.63, an IC50 (Leishmania infantum [12]) of 30.4 µM and a selectivity ratio [13] of 0.96. The IC50 (Leishmania braziliensis) was 46.4 µM.
CCOP(=O)(Nc1ccc([Se][Se]c2ccc(NP(=O)(OCC)OCC)cc2)cc1)OCC gave an IC50 (Leishmania infantum [14]) of 0.17 µM.
With O=C1NC(=O)/C(=C/c2cc(Cl)cc(Br)c2O)S1 the selectivity ratio [11] was 0.55, the IC50 (Leishmania infantum [12]) was 35.9 µM and the selectivity ratio [13] was 0.74. For the same compound, the IC50 (Leishmania braziliensis) was 48.2 µM.
COc1ccc(CC(=O)Nc2nnc(S(N)(=O)=O)s2)cc1 gave an IC50 (Trypanosoma cruzi [6]) of 3.27 µM, an IC50 (Trypanosoma cruzi [7]) of 6.69 µM and a selectivity ratio [8] of 1. The selectivity ratio [9] was 1.
In the case of Fc1cccc(CSc2nc3ccccc3s2)c1, the LC50 (Trypanosoma cruzi [4]) is reported as > 350 µM and the LC50 (Trypanosoma cruzi [5]) is reported as > 350 µM.
For O=C1C(=O)c2ccccc2C2=C1CC(C[Se]c1cccc(C(F)(F)F)c1)O2 (stereo unspecified), the IC50 (Trypanosoma cruzi [15]) was 75.5 µM.
Work on NC(=S)N/C=N/c1c(C(F)(F)F)nn(-c2ccccc2)c1-c1ccc(F)cc1 yielded an IC50 (Trypanosoma cruzi [16]) of 69.3 µM.
For Cc1ccc(S(=O)(=O)Nc2ccc([Se][Se]c3ccc(NS(=O)(=O)c4ccc(C)cc4)cc3)cc2)cc1, the IC50 (Trypanosoma cruzi [10]) was 5.1 µM, the IC50 (Trypanosoma cruzi [1]) was 3.7 µM and the IC50 (Trypanosoma cruzi [2]) was 4.2 µM.
Compound COc1ccc(-c2c(/N=C/NC(N)=S)c(C(F)(F)F)nn2-c2ccccc2)cc1 has an IC50 (Trypanosoma cruzi [16]) of 29.7 µM.
For O=C1c2ccccc2C(=O)c2cc(C[Se][Se]Cc3ccc4c(c3)C(=O)c3ccccc3C4=O)ccc21, the IC50 (Leishmania infantum [14]) was 0.68 µM.
N#C[Se]Cc1cccc(C#N)c1 gave an IC50 (Trypanosoma cruzi [10]) of 1 µM, an IC50 (Trypanosoma cruzi [1]) of 0.9 µM and an IC50 (Trypanosoma cruzi [2]) of 0.8 µM.
NC(=S)N/C=N/c1c(C(F)(F)F)nn(-c2ccccc2)c1-c1ccc([N+](=O)[O-])cc1 showed an IC50 (Trypanosoma cruzi [16]) of 45.7 µM.
NS(=O)(=O)c1ccc(C[Te]c2ccc3ccccc3c2)cc1 gave an IC50 (Leishmania infantum [14]) of 5.83 µM.
CCOP(=S)(Nc1ccc([Se][Se]c2ccc(NP(=S)(OCC)OCC)cc2)cc1)OCC showed an IC50 (Leishmania infantum [14]) of 0.79 µM.
Work on N#C[Se]Cc1ccccc1[N+](=O)[O-] yielded an IC50 (Trypanosoma cruzi [10]) of 0.9 µM, an IC50 (Trypanosoma cruzi [1]) of 1.3 µM and an IC50 (Trypanosoma cruzi [2]) of 0.5 µM.
COP(=O)(Nc1ccc([Se][Se]c2ccc(NP(=O)(OC)OC)cc2)cc1)OC gave an IC50 (Leishmania infantum [14]) of 0.33 µM.
Compound O=C1NC(=O)/C(=C/c2ccc(Cl)cc2Cl)S1 has a selectivity ratio [11] of 0.76, an IC50 (Leishmania infantum [12]) of 40.9 µM and a selectivity ratio [13] of 0.82. It also gave an IC50 (Leishmania braziliensis) of 44.2 µM.
Compound Oc1cccc(-c2nnc(-c3ccc4ncccc4c3)s2)c1O has an IC50 (Leishmania major) of 0.04 µM.
With Cc1ccc(C[Se]C#N)cc1 the IC50 (Trypanosoma cruzi [10]) was 3 µM, the IC50 (Trypanosoma cruzi [1]) was 4.5 µM and the IC50 (Trypanosoma cruzi [2]) was 3.1 µM.
Compound NS(=O)(=O)c1ccc(-c2cnc(C[Se]c3ccccc3)[se]2)cc1 has an IC50 (Leishmania infantum [14]) of 4.11 µM.
In the case of C/C(=N\Nc1nc(-c2ccc(F)cc2)cs1)c1ccccn1, the IC50 (Leishmania infantum [17]) is reported as 0.42 µM.
With Brc1ccc(-c2csc(N/N=C/c3ccccn3)n2)cc1 the IC50 (Leishmania infantum [17]) was 3.12 µM.
With NS(=O)(=O)c1ccc(NC(=O)Cc2ccc(Cl)cc2)c(F)c1 the IC50 (Trypanosoma cruzi [6]) was 2.83 µM, the IC50 (Trypanosoma cruzi [7]) was 3.54 µM and the selectivity ratio [8] was 2. For the same compound, the selectivity ratio [9] was 3.
Work on Fc1cccc(F)c1CSc1nc2ccccc2s1 yielded a selectivity ratio [3] of 1.91, a selectivity ratio [18] of 4.48 and an LC50 (Trypanosoma cruzi [4]) of 110 µM. The LC50 (Trypanosoma cruzi [5]) was 260 µM.
Fc1c(F)c(F)c(CSc2nc3ccccc3s2)c(F)c1F gave a selectivity ratio [3] of 1.34, a selectivity ratio [18] of 1.69 and an LC50 (Trypanosoma cruzi [4]) of 147 µM. The LC50 (Trypanosoma cruzi [5]) was 185 µM.
In the case of O=C1NC(=O)/C(=C/c2ccc(Cl)c(Cl)c2)S1, the selectivity ratio [11] is reported as 0.66, the IC50 (Leishmania infantum [12]) is reported as 23.4 µM and the selectivity ratio [13] is reported as 1.85. The IC50 (Leishmania braziliensis) was 65.7 µM.
